From article PMC7595202, “Indole hydrazide compound ZJQ-24 inhibits angiogenesis and induces apoptosis cell death through abrogation of AKT/mTOR pathway in hepatocellular carcinoma” (Cell Death & Disease, 2020) come the findings set out here.

This assay concerns the target mTOR (Homo sapiens, UniProt P42345). The assay is described as follows: in vitro kinase activity assay at ATP near Km; also anti-Raptor immunoprecipitated mTORC1 kinase assay (HepG2/HUH-7) with GST-S6K1 substrate. The class given is biochemical.

Each structure is given as a SMILES string.

The compound `COc1ccc(C=NNC(=O)c2cc3cc(Cl)ccc3[nH]2)c(OC)c1` [ZJQ-24, 5-chloro-N’-(2,4-dimethoxybenzylidene)−1H-indole-2-carbohydrazide] came in with an EC50 of 40.6 µM.

In general, EC50 refers to the concentration that produces a half-maximal response. Lower therefore signals an effect from little substance.
